Each structure is given as a SMILES string. ≈ marks a conversion by molar mass, not a printed value.

One test deals with HEK293. Put plainly: cells. The test is classed as functional. Conditions: Homo sapiens, ATCC CRL1573, HEK293; ASSAY_TEST Inhibition of Cell Viability; detection method Resazurin; Fluorescence (ex560/em590); MEDIA DMEM with 10% FBS; plate type 384well; TC; CORNING #3712; time 18 hr.
For a further test, the system named is Staphylococcus aureus. Put plainly: microbe, parasite or virus in culture. Particulars: ATCC 43300, 18 h, ASSAY_TEST Inhibition of Bacterial Growth, detection method Absorption (OD600), MEDIA CAMHB, plate type 384well, NBS, CORNING #3640.
A further test relates to Escherichia coli. Description: microbe, parasite or virus in culture. Conditions: ATCC 25922, 18 h, ASSAY_TEST Inhibition of Bacterial Growth, detection method Absorption (OD600), MEDIA CAMHB, plate type 384well, NBS, CORNING #3640.
The next test deals with Klebsiella pneumoniae. Put plainly: microbe, parasite or virus in culture. Particulars: ATCC 700603, 18 h, ASSAY_TEST Inhibition of Bacterial Growth, detection method Absorption (OD600), MEDIA CAMHB, plate type 384well, NBS, CORNING #3640.
In a further test the test system is Pseudomonas aeruginosa. Put plainly: microbe, parasite or virus in culture. Conditions: ATCC 27853, 18 h, ASSAY_TEST Inhibition of Bacterial Growth, detection method Absorption (OD600), MEDIA CAMHB, plate type 384well, NBS, CORNING #3640.
The next test concerns Acinetobacter baumannii. Description: microbe, parasite or virus in culture. Particulars: ATCC 19606, 18 h, ASSAY_TEST Inhibition of Bacterial Growth, detection method Absorption (OD600), MEDIA CAMHB, plate type 384well, NBS, CORNING #3640.
A further test relates to Candida albicans. Description: microbe, parasite or virus in culture. Particulars: ATCC 90028, ASSAY_TEST Inhibition of Fungal Growth, detection method Absorption (OD530), plate type 384well, NBS, CORNING #3640.

Description for Acinetobacter baumannii: Antibacterial activity against Acinetobacter baumannii ATCC 19606 (CO-ADD:GN_034); MIC in CAMBH media using NBS plates, by OD600
Description for Candida albicans: Antifungal activity against Candida albicans ATCC 90028 (CO-ADD:FG_001); MIC in YNB media using NBS plates, by OD630
Description for Cryptococcus neoformans: Antifungal activity against Cryptococcus neoformans H99 ATCC 208821 (CO-ADD:FG_002); MIC in YNB media using NBS plates, by Resazurin OD(600-570)
Description for Escherichia coli: Antibacterial activity against Escherichia coli ATCC 25922 (CO-ADD:GN_001); MIC in CAMBH media using NBS plates, by OD(600)
Description for Klebsiella pneumoniae: Antibacterial activity against Klebsiella pneumoniae MDR ATCC 70063 (CO-ADD:GN_003); MIC in CAMBH media using NBS plates, by OD(600)
Description for Pseudomonas aeruginosa: Antibacterial activity against Pseudomonas aeruginosa ATCC 27853 (CO-ADD:GN_042); MIC in CAMBH media using NBS plates, by OD(600)
Description for Staphylococcus aureus: Antibacterial activity against Staphylococcus aureus MRSA ATCC 43300 (CO-ADD:GP_020); MIC in CAMBH media, using NBS plates, by OD(600)

In the test on HEK293, `Oc1ccccc1-c1cc2ccccc2[nH]1` [2-(2'-HYDROXYPHENYL)-1H-INDOLE] registered a CC50 of 0.256 µg/mL (≈ 1.22 µM). Besides, the MIC in the test on Cryptococcus neoformans, against Staphylococcus aureus, in the test with Escherichia coli, in the test on Klebsiella pneumoniae, against Pseudomonas aeruginosa and in the test on Acinetobacter baumannii was over 32 µg/mL in each case. Further, in the test with Candida albicans, the MIC was over 32 µg/mL.

Source of the values: ChEMBL document CHEMBL4513144, “CO-ADD screening of University of Central Lancashire (UK) compounds”.
